Some test systems named below: 786-0; SF-268; SR; CCRF-CEM; LOX IMVI; EKVX; SK-OV-3; TK-10; SK-MEL-28; SF-295; SN12C; HOP-62; A549; SW-620; MOLT-4.
Assay in all cases: inhibition of tumour cell growth, NCI panel, 48 h

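These data come from cells grown in 96-well plates and exposed to compound for 48 hours at five concentrations. The concentration for 50% growth inhibition is given as GI50.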 The source made the active and inactive calls. Rule as the data show it: active = GI50 up to about 1.1 µM and inactive = higher. Bounds are passed on as bounds.

For the compound `COC(=O)[C@@H]1CSC(=S)N1C(=O)C[C@H]1CC=CC[C@H]1CC(=O)Sc1ccccc1`, the GI50 is 17.5 µM (inactive) with 786-0; 15.1 µM (inactive) in the assay on SF-268; 8.99 µM (inactive) with SR; 3.04 µM (inactive) in the assay with CCRF-CEM; 17.7 µM (inactive) in the assay on LOX IMVI; 17.4 µM (inactive) with EKVX. Also, the GI50 is 27.8 µM (inactive) in the assay with SK-OV-3; > 10 µM (inactive) in the assay on TK-10; 16.4 µM (inactive) in the assay with SK-MEL-28; 22 µM (inactive) in the assay on SF-295; 15.7 µM (inactive) with SN12C; 20.7 µM (inactive) in the assay on HOP-62. For the same compound, the GI50 in the assay with A549 is 17.7 µM (inactive); in the assay on SW-620, 17.4 µM (inactive); with MOLT-4, 4.29 µM (inactive).
Take `NCCc1ccc2oc3cc(=O)c4ccccc4c-3nc2c1`: the GI50 in the assay with 786-0 is 2.12 µM (inactive); in the assay with SF-268, 3.85 µM (inactive); with SR, 1.62 µM (inactive); with CCRF-CEM, 1.79 µM (inactive); in the assay on LOX IMVI it was 1.24 µM (inactive); in the assay on EKVX, 11.6 µM (inactive). For the same compound, the GI50 in the assay on SK-OV-3 is 12.1 µM (inactive); in the assay with TK-10, 14 µM (inactive); in the assay on SK-MEL-28, 3.81 µM (inactive); in the assay with SF-295, 2.3 µM (inactive); in the assay with SN12C, 2.22 µM (inactive); in the assay with HOP-62, 3.09 µM (inactive). Besides, the GI50 with A549 was 0.478 µM (active); in the assay with SW-620 it was 2.19 µM (inactive); with MOLT-4, 1.9 µM (inactive).
`N#Cc1nc(Nc2ccc(Cl)cc2)sc1N`: the GI50 in the assay with 786-0 was 8.43 µM (inactive); in the assay on SF-268, 5.47 µM (inactive); in the assay with SR, 1.51 µM (inactive); in the assay with CCRF-CEM it was 2.94 µM (inactive); in the assay on LOX IMVI, 3.47 µM (inactive); in the assay with EKVX it was 24.2 µM (inactive). Besides, the GI50 in the assay on SK-OV-3 was 21.5 µM (inactive); in the assay on TK-10 it was 23 µM (inactive); with SK-MEL-28, 20.5 µM (inactive); in the assay on SF-295, 16.9 µM (inactive); in the assay with SN12C, 4.54 µM (inactive); in the assay with HOP-62, 15 µM (inactive). In addition, the GI50 was 10.7 µM (inactive) in the assay on A549, 6.1 µM (inactive) with SW-620 and 1.52 µM (inactive) with MOLT-4.
In the case of `CN1CC(C(=O)C2C(=O)c3ccccc3C2=O)C(=O)C(=O)C(C(=O)C2C(=O)c3ccccc3C2=O)C1` (stereo not drawn), the GI50 in the assay on 786-0, in the assay on SF-268, in the assay with SR, with CCRF-CEM, in the assay with LOX IMVI and in the assay with SK-OV-3 was > 100 µM (inactive) each time. For the same compound, the GI50 in the assay on TK-10 is > 100 µM (inactive); in the assay with SK-MEL-28 it was > 100 µM (inactive); in the assay on SF-295, > 100 µM (inactive); in the assay on SN12C, > 100 µM (inactive); in the assay on HOP-62 it was > 10 µM (inactive); in the assay on A549, > 100 µM (inactive). The GI50 in the assay on SW-620 and in the assay with MOLT-4 was > 100 µM (inactive) throughout.
As to `O=C(O/N=C1/CCCC/C1=C\c1ccccc1)c1ccccc1`, the GI50 in the assay on 786-0 is > 100 µM (inactive); with SF-268 it was 33.3 µM (inactive); in the assay on SR it was 43.5 µM (inactive); with CCRF-CEM it was 36.8 µM (inactive); with LOX IMVI it was 33 µM (inactive); in the assay with EKVX, > 100 µM (inactive). In addition, the GI50 in the assay with SK-OV-3 is > 100 µM (inactive); in the assay on TK-10 it was > 100 µM (inactive); with SK-MEL-28 it was > 100 µM (inactive); with SF-295 it was 70.3 µM (inactive); in the assay on SN12C, > 100 µM (inactive); in the assay on HOP-62 it was > 100 µM (inactive). Moreover, the GI50 in the assay with A549 was > 100 µM (inactive); in the assay with SW-620, > 100 µM (inactive); in the assay with MOLT-4, 24.5 µM (inactive).
For `CC(=O)OCC(OC(C)=O)C(OC(C)=O)C(OC(C)=O)C(=O)CNn1c(-c2ccc(C)cc2)nc2ccccc2c1=O` (stereo not drawn), the GI50 is > 100 µM (inactive) in the assay on 786-0; > 100 µM (inactive) in the assay with SF-268; 41.2 µM (inactive) in the assay on SR; > 100 µM (inactive) in the assay on CCRF-CEM; > 100 µM (inactive) in the assay on LOX IMVI; > 100 µM (inactive) with EKVX. Moreover, the GI50 was > 100 µM (inactive) in the assay on SK-OV-3; > 100 µM (inactive) with SK-MEL-28; > 100 µM (inactive) in the assay on SF-295; 76 µM (inactive) in the assay on SN12C; > 100 µM (inactive) in the assay with HOP-62; > 100 µM (inactive) in the assay on A549. For the same compound, the GI50 was > 100 µM (inactive) in the assay on SW-620 and 82.8 µM (inactive) in the assay with MOLT-4.
Turning to `C/C(=N\NS(=O)(=O)c1ccccc1)c1ccc[n+]([O-])n1`, the GI50 in the assay with 786-0 is > 100 µM (inactive); in the assay on SF-268, > 100 µM (inactive); with SR it was 32.3 µM (inactive); with CCRF-CEM, 19.4 µM (inactive); in the assay on EKVX, > 100 µM (inactive); in the assay with SK-OV-3, > 100 µM (inactive). Moreover, the GI50 was 62.5 µM (inactive) in the assay on SK-MEL-28; > 100 µM (inactive) in the assay with SF-295; > 100 µM (inactive) in the assay with SN12C; > 100 µM (inactive) in the assay on HOP-62; > 100 µM (inactive) in the assay on A549; 34.8 µM (inactive) in the assay on SW-620. The GI50 in the assay with MOLT-4 was 36.4 µM (inactive).
With `Nc1nc(=O)c(/N=N/c2ccccc2)c(N)[nH]1`, the GI50 with 786-0 is 55 µM (inactive); in the assay with SF-268 it was 28.1 µM (inactive); in the assay on SR, > 100 µM (inactive); in the assay with CCRF-CEM it was 36.5 µM (inactive); with LOX IMVI it was 47.5 µM (inactive); in the assay with SK-OV-3 it was 60.3 µM (inactive). For the same compound, the GI50 is 59.8 µM (inactive) with TK-10; 24.8 µM (inactive) in the assay on SK-MEL-28; 32.7 µM (inactive) in the assay on SF-295; 52.7 µM (inactive) in the assay on SN12C; 30.8 µM (inactive) in the assay on HOP-62; 29.9 µM (inactive) in the assay with A549. Also, the GI50 with SW-620 was 78.2 µM (inactive); with MOLT-4, > 100 µM (inactive).
Take `Nc1nc(SCCC/C=C/B(O)O)nc2c1ncn2C1OC(COP(=O)(O)O)C(O)C1O` (stereo not drawn): the GI50 in the assay with 786-0, with SF-268, in the assay on SR, in the assay with CCRF-CEM, in the assay with LOX IMVI and with SK-OV-3 was > 203 µM (inactive) throughout. Further, the GI50 in the assay on TK-10, with SK-MEL-28, in the assay on SF-295, with SN12C, in the assay on HOP-62 and with A549 was > 203 µM (inactive) each time. Moreover, the GI50 with SW-620 and in the assay on MOLT-4 was > 203 µM (inactive) in each case.
For `CN(CCN(C)C(=O)CCn1cc(F)c(=O)[nH]c1=O)C(=O)CCn1cc(F)c(=O)[nH]c1=O`, the GI50 in the assay with 786-0, in the assay with SF-268, in the assay on SR, in the assay with CCRF-CEM, in the assay with LOX IMVI and with EKVX was > 100 µM (inactive) in each case. In addition, the GI50 with TK-10, with SK-MEL-28, in the assay with SF-295, with SN12C, with HOP-62 and in the assay with A549 was > 100 µM (inactive) throughout. In addition, the GI50 in the assay with SW-620 and in the assay with MOLT-4 was > 100 µM (inactive) throughout.
